Columns and labels:
EonuCSP 6-1 = EonuCSP 6-1 (Empoasca onukii, UniProt A0A343WH12); assay: Competitive fluorescence binding assay (1-NPN probe) with recombinant EonuCSP6-1
Protocol: (§1) N-phenyl-1-naphthylamine (1-NPN) was used as the fluorescent probe. The excitation wavelength in the fluorescence spectrometer was set to 337 nm, which was the results of an optimization that we achieved in lab. The scanning wavelength was 420–600 nm.
(§2) The tested chemicals were dissolved in methanol in preparation for 1 mM stock solution. […] We determined the binding constants of 1-NPN by Scatchard formula. […] The binding affinities of the competitors were evaluated from the corresponding IC50 according to the equation: K i = IC50/(1 + [1-NPN]/K1-NPN).

E. onukii adults = assay: Y-tube olfactometer assay (behavioral response); assay type: in vivo, Empoasca onukii; details: 20 μL of 10 μg/μL in methanol, 90 adults per volatile
Protocol: We use a Y-tube olfactometer (1.5 cm in diameter, arms with 8 cm length, and a stem with 18 cm length) to detect the behavioral response of E. onukii to volatiles. The incoming air to the tube was firstly filtered using active carbon and then humidified with the ultrapure water. The air through the arms was blown at a constant flow ([…]). A total of 20 μL tested volatile oil (10 μg/μL in methanol (HPLC)) pipetted onto 1 cm diameter filter paper. This filter paper was placed in the chamber, which connected to one arm of the Y-tube olfactometer. As control, the same filter paper treated with 20 μL of methanol was placed in the chamber connected to another arm of the Y-tube. This experiment was performed in the dark room, which employed a light-emitting diode as the light source. Each adult was introduced into the middle of the stem of the Y-tube and the individuals that made a choice within 8 min were recorded. Individuals moving toward the odorant source for half of the arm distance and stayed for 1 minute were recorded as odorant choice. For each volatile component, 90 adult were used. After 10 insects were tested, the Y-tube olfactometer was washed with 75% ethanol and air-dried, and tested volatiles were placed in another arm for the subsequent tests.

EonuCSP4 = EonuCSP4 (Empoasca onukii, UniProt A0A343WGZ9); assay: Competitive fluorescence binding assay (1-NPN probe) with recombinant EonuCSP4
Protocol: as §1, §2

EonuCSP6-2 = EonuCSP6-2 (Empoasca onukii, UniProt A0A343WH13); assay: Competitive fluorescence binding assay (1-NPN probe) with recombinant EonuCSP6-2
Protocol: as §1, §2

Sequence of EonuCSP 6-1 (A0A343WH12 entry or part of it): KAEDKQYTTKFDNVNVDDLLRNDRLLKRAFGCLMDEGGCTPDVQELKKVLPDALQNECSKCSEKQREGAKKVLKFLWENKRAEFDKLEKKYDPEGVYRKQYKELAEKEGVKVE
Sequence of EonuCSP6-2 (A0A343WH13 entry or part of it): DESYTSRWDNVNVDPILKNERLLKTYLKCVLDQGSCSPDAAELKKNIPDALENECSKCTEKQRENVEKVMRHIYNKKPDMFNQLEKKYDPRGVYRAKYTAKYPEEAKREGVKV
Sequence of EonuCSP4 (A0A343WGZ9 entry or part of it): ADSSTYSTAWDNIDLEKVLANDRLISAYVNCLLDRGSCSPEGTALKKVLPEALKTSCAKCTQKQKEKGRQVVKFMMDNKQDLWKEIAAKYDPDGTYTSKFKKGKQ

SMILES | IC50 (EonuCSP 6-1) [µM] | behavioral response of E. onukii adults (choice versus methanol control) (E. onukii adults) | Kd (EonuCSP4) [µM] | Kd (EonuCSP 6-1) [µM] | Kd (EonuCSP6-2) [µM]
O=Cc1ccccc1 [Benzaldehyde] | > 20 | significant preference | – | – | –
CC/C=C\CCOC(=O)CCCC [Cis-3-Hexenyl n-valerate] | – | significant preference | – | – | –
c1ccc(Nc2cccc3ccccc23)cc1 [1-NPN, N-phenyl-1-naphthylamine] | – | – | 11 | 12.5 | 10.2

Reference: paper PMC9845707, “Involvement of three chemosensory proteins in perception of host plant volatiles in the tea green leafhopper, Empoasca onukii” (Frontiers in Physiology, 2023)
